Measured values from patent US11814445B2, “Cyclic polypeptides for PCSK9 inhibition” (Ra Pharmaceuticals, Inc., priority 2018, dated 2023).
Numbered stars: 1 amine (or outer) side, 2 acyl side, 3 side chain; on linkers, the order of the positions; unused ones are H or OH. Bridge positions count the residues as written; N and C are the ends. Square brackets hold non-standard residues; d marks the D form. Peptide text beside a SMILES is read from it. ξ: configuration not given here. Phe(4-CF3) = N[C@@H](Cc1ccc(C(F)(F)F)cc1)C(=O)O; Trp(5-F) = N[C@@H](Cc1c[nH]c2ccc(F)cc12)C(=O)O; X9 = O=C(CCCCCSCc1ccc(CSCCN[*:1])cc1)[*:2]; Phe(4-CN) = N#Cc1ccc(C[C@H](N)C(=O)O)cc1; Phe(4-Cl) = N[C@@H](Cc1ccc(Cl)cc1)C(=O)O; Pro(cis-4-F) = O=C(O)[C@@H]1C[C@H](F)CN1; αMeW = C[C@](N)(Cc1c[nH]c2ccccc12)C(=O)O; X1 = O=C(CCSCc1cccc(CSCCN[*:1])c1)[*:2]; 1Nal = N[C@@H](Cc1cccc2ccccc12)C(=O)O; mXylylene = c1cc(C[*:1])cc(C[*:2])c1; Igl = N[C@H](C(=O)O)C1Cc2ccccc2C1; NMeF = CN[C@@H](Cc1ccccc1)C(=O)O; 2Pal = N[C@@H](Cc1ccccn1)C(=O)O; 4Pal = N[C@@H](Cc1ccncc1)C(=O)O; Cha = N[C@@H](CC1CCCCC1)C(=O)O; αMeP = C[C@@]1(C(=O)O)CCCN1; Ac5c = NC1(C(=O)O)CCCC1; Thp = NC1(C(=O)O)CCOCC1; Aib = CC(C)(N)C(=O)O; ξP = O=C(O)C1CCCN1; Mpa = O=C(O)CCS

biological target: human PCSK9 / human LDLR EGFa domain (Homo sapiens, UniProt Q8NBP7); assay: TR-FRET assay of inhibition of the PCSK9-LDLR protein-protein interaction; type: binding; conditions: 20 nM human PCSK9, 20 nM human LDLR EGFa domain, 2 hours room temperature
Experimental: A time-resolved fluorescence resonance energy (TR-FRET) assay was used to measure inhibition of the PCSK9-LDLR protein-protein interaction. Briefly, 20 nM avitag-biotinylated human PCSK9 was incubated with 20 nM his-tagged human LDLR EGFa domain in the presence of 5 nM LANCE Ulight Streptavidin (Perkin Elmer) and 5 nM europium-Anti-6×His (Perkin Elmer) for 2 hours covered at room temperature in buffer containing 50 mM HEPES, 150 mM NaCl, 5 mM CaCl2), 0.01% BSA and 0.01% Surfactant P20. Compounds were tested in dose-response and concentrations giving half-maximal inhibition calculated using a 4-parameter fit equation.

Sequence of human PCSK9 / human LDLR EGFa domain (Q8NBP7 153-692): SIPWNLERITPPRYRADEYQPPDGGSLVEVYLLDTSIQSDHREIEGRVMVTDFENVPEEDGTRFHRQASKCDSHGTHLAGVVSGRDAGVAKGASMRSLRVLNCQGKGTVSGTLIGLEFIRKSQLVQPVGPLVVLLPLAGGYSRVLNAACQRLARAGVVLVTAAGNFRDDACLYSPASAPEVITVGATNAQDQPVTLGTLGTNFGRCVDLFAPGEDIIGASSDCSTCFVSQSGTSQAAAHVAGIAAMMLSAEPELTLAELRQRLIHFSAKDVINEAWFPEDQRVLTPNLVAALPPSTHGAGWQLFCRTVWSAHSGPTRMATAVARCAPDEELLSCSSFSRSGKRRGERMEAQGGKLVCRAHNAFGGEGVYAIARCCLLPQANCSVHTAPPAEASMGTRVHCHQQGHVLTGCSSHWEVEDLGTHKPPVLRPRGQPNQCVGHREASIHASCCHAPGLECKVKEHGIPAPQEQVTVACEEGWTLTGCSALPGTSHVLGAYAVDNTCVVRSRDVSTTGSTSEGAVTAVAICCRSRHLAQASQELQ

Row | SMILES | IC50
1 | C[C@@H]1NC(=O)[C@@H]2CCCN2C(=O)[C@H](Cc2ccccn2)NC(=O)[C@H](Cc2c[nH]c3ccc(F)cc23)NC(=O)CNC(=O)[C@H](CCCCN)NC(=O)CCSCc2cccc(c2)CSC[C@@H](C(N)=O)NC(=O)[C@@H]2CCCN2C(=O)[C@H](Cc2ccc(O)cc2)NC1=O [Compound 019] ([Mpa]KG[Trp(5-F)][2Pal]PAYPC-NH2; linker 1-10 via mXylylene) | 21000 to 50000 nM
2 | C[C@@H]1NC(=O)[C@@H]2CCCN2C(=O)[C@H](C2Cc3ccccc3C2)NC(=O)[C@H](Cc2c[nH]c3ccc(F)cc23)NC(=O)CNC(=O)[C@H](CCCCN)NC(=O)CCSCc2cccc(c2)CSC[C@@H](C(N)=O)NC(=O)[C@@H]2CCCN2C(=O)[C@H](Cc2ccc(O)cc2)NC1=O [Compound 008] ([Mpa]KG[Trp(5-F)][Igl]PAYPC-NH2; linker 1-10 via mXylylene) | 100 to 1000 nM
3 | COc1ccc(C[C@@H]2NC(=O)[C@H](Cc3c[nH]c4ccc(F)cc34)NC(=O)CNC(=O)[C@H](CCCCN)NC(=O)CCSCc3cccc(c3)CSC[C@@H](C(N)=O)NC(=O)[C@@H]3CCCN3C(=O)[C@H](Cc3ccc(O)cc3)NC(=O)[C@H](C)NC(=O)[C@@H]3CCCN3C2=O)cc1 [Compound 018] ([Mpa]KG[Trp(5-F)]Y(Me)PAYPC-NH2; linker 1-10 via mXylylene) | 100 to 1000 nM
4 | C[C@@H]1NC(=O)CCSCc2cccc(c2)CSC[C@@H](C(N)=O)NC(=O)[C@@H]2CCCN2C(=O)[C@H](Cc2ccc(C#N)cc2)NC(=O)[C@H](C)NC(=O)[C@@H]2CCCN2C(=O)[C@H](Cc2c[nH]c3ccc(F)cc23)NC(=O)[C@H](Cc2c[nH]c3ccc(F)cc23)NC(=O)[C@@H](C)NC1=O [Compound 081] ([Mpa]A[dA][Trp(5-F)][Trp(5-F)]PA[Phe(4-CN)]PC-NH2; linker 1-10 via mXylylene) | 1000 to 12100 nM
5 | C[C@@H]1NC(=O)CCSCc2cccc(c2)CSCCNC(=O)[C@@H]2CCCN2C(=O)[C@H](Cc2ccc(O)cc2)NC(=O)[C@H](C)NC(=O)[C@@H]2CCCN2C(=O)[C@H](Cc2c[nH]c3ccc(F)cc23)NC(=O)[C@H](Cc2c[nH]c3ccc(F)cc23)NC(=O)[C@@H](C)NC1=O [Compound 058] (cyclo(AYP[X1]A[dA][Trp(5-F)][Trp(5-F)]P)) | 21000 to 50000 nM
6 | C[C@@H]1NC(=O)[C@@H]2CCCN2C(=O)[C@H](Cc2c[nH]c3ccc(F)cc23)NC(=O)[C@H](Cc2c[nH]c3ccc(F)cc23)NC(=O)CNC(=O)CCCCCSCc2ccc(cc2)CSCCNC(=O)C2CCCN2C(=O)[C@H](Cc2ccc(O)cc2)NC1=O (some centres unmarked) [Compound 099] (cyclo(AY[ξP][X9]G[Trp(5-F)][Trp(5-F)]P)) | 1000 to 12100 nM
7 | C[C@@H]1NC(=O)[C@@H]2C[C@H](F)CN2C(=O)[C@H](Cc2c[nH]c3ccc(F)cc23)NC(=O)[C@H](Cc2c[nH]c3ccc(F)cc23)NC(=O)CNC(=O)[C@H](CCCCN)NC(=O)CCSCc2cccc(c2)CSC[C@@H](C(N)=O)NC(=O)[C@@H]2CCCN2C(=O)[C@H](Cc2ccc(O)cc2)NC1=O [Compound 002] ([Mpa]KG[Trp(5-F)][Trp(5-F)][Pro(cis-4-F)]AYPC-NH2; linker 1-10 via mXylylene) | 1 to 100 nM
8 | C[C@@H]1NC(=O)[C@@H]2CCCN2C(=O)[C@H](Cc2c[nH]c3ccc(F)cc23)NC(=O)[C@H](Cc2c[nH]c3ccc(F)cc23)NC(=O)[C@@H](C)NC(=O)C2(CCOCC2)NC(=O)CCSCc2cccc(c2)CSCCNC(=O)[C@@H]2CCCN2C(=O)[C@H](Cc2ccc(O)cc2)NC1=O [Compound 031] (cyclo(AYP[X1][Thp][dA][Trp(5-F)][Trp(5-F)]P)) | 100 to 1000 nM
9 | C[C@@H]1NC(=O)[C@@H]2CCCN2C(=O)[C@](C)(Cc2c[nH]c3ccccc23)NC(=O)[C@H](Cc2c[nH]c3ccc(F)cc23)NC(=O)CNC(=O)[C@H](CCCCN)NC(=O)CCSCc2cccc(c2)CSC[C@@H](C(N)=O)NC(=O)[C@@H]2CCCN2C(=O)[C@H](Cc2ccc(O)cc2)NC1=O [Compound 023] ([Mpa]KG[Trp(5-F)][αMeW]PAYPC-NH2; linker 1-10 via mXylylene) | 1000 to 12100 nM

Next, values leading:

Row | IC50 | SMILES
10 | 100 to 1000 nM | C[C@@H]1NC(=O)[C@@H]2CCCN2C(=O)[C@H](Cc2c[nH]c3ccc(F)cc23)NC(=O)[C@H](Cc2c[nH]c3ccc(F)cc23)NC(=O)[C@@H](C)NC(=O)[C@@H]2CCCN2C(=O)CCSCc2cccc(c2)CSCCNC(=O)[C@@H]2CCCN2C(=O)[C@H](Cc2cccc3ccccc23)NC1=O [Compound 054] (cyclo([1Nal]P[X1]P[dA][Trp(5-F)][Trp(5-F)]PA))
11 | 1000 to 12100 nM | C[C@@]12CCCN1C(=O)[C@H](Cc1ccc(O)cc1)NC(=O)[C@H](Cc1cnc[nH]1)NC(=O)[C@@H]1CCCN1C(=O)[C@H](Cc1c[nH]c3ccc(F)cc13)NC(=O)[C@H](CC1CCCCC1)NC(=O)CNC(=O)[C@H](CCCCN)NC(=O)CCSCc1cccc(c1)CSCCNC2=O [Compound 104] (cyclo([Cha][Trp(5-F)]PHY[αMeP][X1]KG))
12 | 1000 to 12100 nM | C[C@@H]1NC(=O)[C@@H]2CCCN2C(=O)[C@H](Cc2ccc(C(F)(F)F)cc2)NC(=O)[C@H](Cc2c[nH]c3ccc(F)cc23)NC(=O)CNC(=O)[C@H](CCCCN)NC(=O)CCSCc2cccc(c2)CSC[C@@H](C(N)=O)NC(=O)[C@@H]2CCCN2C(=O)[C@H](Cc2ccc(O)cc2)NC1=O [Compound 007] ([Mpa]KG[Trp(5-F)][Phe(4-CF3)]PAYPC-NH2; linker 1-10 via mXylylene)
13 | 1000 to 12100 nM | C[C@@H]1NC(=O)CCSCc2cccc(c2)CSCCNC(=O)[C@@H]2CCCN2C(=O)[C@H](Cc2ccccc2)N(C)C(=O)[C@H](C)NC(=O)[C@@H]2CCCN2C(=O)[C@H](Cc2c[nH]c3ccc(F)cc23)NC(=O)[C@H](Cc2cccc3ccccc23)NC(=O)[C@@H](C)NC1=O [Compound 067] (cyclo([1Nal][Trp(5-F)]PA[NMeF]P[X1]A[dA]))
14 | 21000 to 50000 nM | C[C@@H]1NC(=O)CCSCc2cccc(c2)CSC[C@@H](C(N)=O)NC(=O)[C@@H]2CCCN2C(=O)[C@H](Cc2ccc(Cl)cc2)NC(=O)[C@H](C)NC(=O)[C@@H]2CCCN2C(=O)[C@H](Cc2c[nH]c3ccc(F)cc23)NC(=O)[C@H](Cc2c[nH]c3ccc(F)cc23)NC(=O)[C@@H](C)NC1=O [Compound 083] ([Mpa]A[dA][Trp(5-F)][Trp(5-F)]PA[Phe(4-Cl)]PC-NH2; linker 1-10 via mXylylene)
15 | 100 to 1000 nM | C[C@@H]1NC(=O)[C@@H]2CCCN2C(=O)[C@H](Cc2c[nH]c3ccc(F)cc23)NC(=O)[C@H](Cc2c[nH]c3ccc(F)cc23)NC(=O)[C@@H](C)NC(=O)C2(CCCC2)NC(=O)CCSCc2cccc(c2)CSCCNC(=O)[C@@H]2CCCN2C(=O)[C@H](Cc2ccc(O)cc2)NC1=O [Compound 030] (cyclo(AYP[X1][Ac5c][dA][Trp(5-F)][Trp(5-F)]P))
16 | 100 to 1000 nM | C[C@@H]1NC(=O)[C@@H]2CCCN2C(=O)[C@H](Cc2ccncc2)NC(=O)[C@H](Cc2c[nH]c3ccc(F)cc23)NC(=O)CNC(=O)[C@H](CCCCN)NC(=O)CCSCc2cccc(c2)CSC[C@@H](C(N)=O)NC(=O)[C@@H]2CCCN2C(=O)[C@H](Cc2ccc(O)cc2)NC1=O [Compound 021] ([Mpa]KG[Trp(5-F)][4Pal]PAYPC-NH2; linker 1-10 via mXylylene)
17 | 100 to 1000 nM | C[C@@H]1NC(=O)[C@@H]2CCCN2C(=O)[C@H](Cc2c[nH]c3ccc(F)cc23)NC(=O)[C@H](Cc2c[nH]c3ccc(F)cc23)NC(=O)[C@@H](C)NC(=O)C(C)(C)NC(=O)CCSCc2cccc(c2)CSCCNC(=O)[C@@H]2CCCN2C(=O)[C@H](Cc2ccc(O)cc2)NC1=O [Compound 094] (cyclo(AYP[X1][Aib][dA][Trp(5-F)][Trp(5-F)]P))
